Literature values, collected in patent publication US20180000827A1 (SYNTHON B.V., priority 2014, published 2018).

## COc1cc2ncnc(Nc3ccc(F)c(Cl)c3)c2cc1OCCCN1CCOCC1 [Gefitinib, 4-(3-chloro-4-fluorophenylamino)-7-methoxy-6-[3-(4-morpholinyl)propoxy] quinazoline]
  solubility dependence on pH: highly dependent upon pH
